Experiments:
[1] = Changes over time of Z to E transition by 19F NMR; type: physicochemical; settings: light 505 nm, 100 mM in DMSO
Excerpt: We can observe that for electromagnetic radiation in the range of wavelengths 390 nm to 610 nm, transitions from E to Z of about 0–76% are obtained. The best results for all compounds are in visible wavelengths 505 nm or 525 nm (30.59–75.44%). From analyzing Figure 2 we can draw the following conclusions: all synthesized compounds undergo switching under visible light (this is important because UV radiation can damage the DNA of cells, inhibiting replication and, as a result, preventing cell division). For the 2,6-difluoro substituents (17i), (17j), (17k), and (17l) with values of 74.84%, 73.2%, 74.39%, and 75.44%, respectively, the largest share of the Z configuration is at (525 nm) and, for the rest of (17a), (17b), (17c), (17e), (17f), and (17g), it is in range of 30.57–47.13% at 505 nm. […] Multiple cycles of photoreversible switching under alternating green and blue light irradiation, with no significant photobleaching or degradation, confirmed the repeatable and robust photochromic conversion of the synthesized azobenzenes (Figure 2b). Then we measured changes over time (transitions from Z to E, upon irradiation with 505 nm for (17a–17c) and (17e–17g), and 525 nm for (17i–17l) compounds (Figure 3, and see Section S4.3 in Supplementary Materials).

PC-3 cells [2] = assay: MTS cell proliferation assay, PC-3; type: cell-based, human
Procedure: Human BJ fibroblasts (American Type Cell Culture Collection, Manassas, VA, USA, CRL-2522) and human prostate cancer cell line PC-3 (American Type Cell Culture Collection, Manassas, VA, USA, CRL-1435), derived from bone metastases, were routinely grown in […]) Medium (ThermoFisher, Waltham, MA, USA, 21127-022) and supplemented with heat-inactivated 10% Fetal Bovine Serum (Biowest, France, […]) and 1% antibiotic solution (Biowest, Nuaillé, France, L0022), in a humidified 5% CO2 atmosphere at 37 °C. Cells were used between 3 and 20 passages. The 96-well plates were prepared by seeding 5 × 10^3 or 2.5 × 10^3 cells per well, for 24 and 48 h treatments, respectively, with at least five technical and two biological repeats. […] The cells were treated with either the Z conformer of 17j, with continuous illumination with 525 nm light, or the E conformer. The Z conformer was prepared by illuminating its DMSO solution with 525 nm light overnight. The cell proliferation was analyzed with CellTiter Aqueous One Solution Cell Proliferation MTS (3-(4,5-dimethylthiazol-2-yl)-5-(3-carboxymethoxyphenyl)-2-(4-sulfophenyl)-2H-tetrazolium) Assay (Promega, Madison, WI, USA, G5430) after 24 or 48 h of treatment. The absorbance was measured at 490 and 670 nm with FLUOStar Omega plate reader (BMG LABTECH GmbH, Ortenberg, Germany). The statistical analysis was performed within R 4.5.1 project. […] The log-logistic four parametric model (4PL), with the lower limit boundary set to 0 and group fitting, was used, as available in the drc package, to fit cell proliferation data. […] The assessment metrics for model goodness of fit were performed with functions available in the drc package and with custom ones. When appropriate, the delta method was applied to obtain error of central tendency. To assess the goodness of fit for each of the biological replicates, deviance R^2 (DR^2) was calculated and assessed. […] The DR^2 was calculated according to the following Equation: 1 - (Dres/Dnull), where Dres-residual deviance and Dnull-null deviance (deviance of the model with mean as a predicted value). The null hypothesis was assessed with the two-way ANOVA with Tukey's post hoc test for multiple comparisons or with the two-way t-test when only two groups were compared. The differences in the cell cycle percentages were assessed with the two-way ANOVA with Tukey's post hoc test.

PC-3 cells [3] = assay: Cell cycle analysis by flow cytometry, PC-3; type: cell-based, human; settings: 24 h
Procedure: The BJ or PC-3 cells were treated as described previously, with the exception that 0.15 × 10^6 cells per well were seeded in 6-well plates. After 24 h of treatment, cells were harvested by trypsinization (Biowest, Nuaillé, France, L0931), washed twice, resuspended in PBS, and added to cold 70% ethanol for overnight fixation at −20 °C. Subsequently, cells were centrifuged and resuspended in PBS containing 5 µg/mL of propidium iodide in PBS (Sigma-Aldrich, St. Louis, MO, USA, 4170), 0.1% Triton X-100, and 10 µg/mL of DNAse-free RNAse (A&A Biotechnology, Gdansk, Poland, 1006-10) in the dark for 4 h at 37 °C. FACS analysis was performed using a FACSCanto II flow cytometer and FACSDiva, version 9.0 software (BD Biosciences, San Jose, CA, USA). Flow rate was set to about 1000 events/cells per second. Signals from at least 10,000 events per sample were captured. The percentages of PC-3 cells in cell cycle phases (G0/G1, S, and G2/M) were determined using ModFit LT 4.1.7 (Verity Software House, Topsham, ME, USA).

[4] = UV–VIS spectra of E/Z isomers in DMSO; type: physicochemical; settings: for Δ λmax n→π*: between E and Z isomers
Procedure: For this purpose, the UV–VIS spectra were measured for all synthesized hybrids (17a–17l) at concentrations from 20 to 500 µM in dimethyl sulfoxide (DMSO) in light at λ 505 nm and for (17a–17c), (17e–17g), and (17i–17l) at λ 525 nm, respectively, as detailed in Table 1 (see Section S4.4 in Supplementary Materials).

Structure (SMILES)	Z isomer, changes over time ([1]; 0 h) [%]	Z isomer, changes over time ([1]; 1 h) [%]	Z isomer, changes over time ([1]; 2 h) [%]	Z isomer, changes over time ([1]; 3 h) [%]	Z isomer, changes over time ([1]; 4 h) [%]	Z isomer, changes over time ([1]; 5 h) [%]	Z isomer, changes over time ([1]; 6 h) [%]	Z isomer, changes over time ([1]; 7 h) [%]	Z isomer, changes over time ([1]; 8 h) [%]	Δ (Z to E change 0 h to 8 h) [1] [%]	normalized asymptote (PC-3 cells [2]; 24 h treatment) [%]	normalized asymptote (PC-3 cells [2]; 48 h treatment) [%]	percentage of cells in the G2/M phase (PC-3 cells [3]; 20 nM) [%]	percentage of cells in the G2/M phase (PC-3 cells [3]; 60 nM) [%]	εmax (n→π*) ([4]; E isomer) [dm^3·mol^−1·cm^−1]	λmax n→π* (E) ([4]; E isomer) [nm]	εmax (n→π*) ([4]; Z isomer) [dm^3·mol^−1·cm^−1]	λmax n→π* (Z) ([4]; Z isomer) [nm]	Δ λmax n→π* [4] [nm]
COc1ccc(/C=C/C(=O)c2cccc(/N=N/c3ccc(F)cc3)c2)cc1OC [Compound 17a]	32.44	31.33	30.37	29.4	28.74	27.66	26.82	26.38	26.02	6.42	–	–	–	–	–	–	–	–	–
COc1cc2c(c(OC)c1OC)-c1ccc(OC)c(=O)cc1[C@@H](NC(C)=O)CC2 [colchicine, reference compound]	–	–	–	–	–	–	–	–	–	–	63.8 ± 6.2	51.3 ± 5.7	15.7	54.2	–	–	–	–	–
COc1cc(/C=C/C(=O)c2cccc(/N=N/c3ccc(F)cc3F)c2)cc(OC)c1OC [Compound 17g]	44.82	43.69	42.89	42.36	41.25	40.61	40.5	39.88	38.78	6.04	–	–	–	–	–	–	–	–	–
COc1cc(/C=C/C(=O)c2cccc(/N=N/c3ccc(F)cc3F)c2)cc(OC)c1 [Compound 17f]	47.13	46.61	45.77	44.72	44.28	43.95	43.3	42.6	41.87	5.26	–	–	–	–	872	441.9	1150	427.9	14.0
COc1cc(/C=C/C(=O)c2cccc(/N=N/c3ccc(F)cc3)c2)cc(OC)c1 [Compound 17b]	32.38	32.21	30.2	29.69	28.37	26.74	25.21	24.74	24.03	8.35	–	–	–	–	688	442.1	898	434.0	8.1
COc1ccc(/C=C/C(=O)c2cccc(/N=N/c3ccc(F)cc3F)c2)cc1OC [Compound 17e]	46.84	45.35	45.18	44.16	43.55	43.39	43.01	42.31	42.17	4.67	–	–	–	–	–	–	–	–	–
COc1cc(/C=C/C(=O)c2cccc(/N=N/c3ccc(F)cc3)c2)cc(OC)c1OC [Compound 17c]	30.59	30.16	28.28	27.14	25.95	25.61	25.18	24.05	23.17	7.42	–	–	–	–	–	–	–	–	–

Reference: paper PMC12844124, “Synthesis and Study of Substituted Chalcones Combined with Fluoroazobenzenes—New Photoswitches for Application in Biological Systems” (Molecules, 2026)
